Consider nine compounds from patent US12624018B1, “Inhibitors of RIPK2 and medical uses thereof” (Odyssey Therapeutics, Inc., priority 2022, dated 2026).

Where only a bound is given, the exact number is not on record here.

In one test the target is T1, RIPK2 enzyme (Homo sapiens, UniProt O43353).
T1 construct: purchased Carna 09-128
Nature of the test: RIPK2 inhibition (ADP-Glo Kinase Assay). The class given is biochemical. The conditions noted are these: RIPK2 5 nM, ATP 150 μM, MBP substrate, read-out: RIPK2 IC50. Summed up: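 Human RIPK2 (5 nM) preincubated with compound 30 min at room temperature in 50 mM HEPES pH 7.5, 10 mM MgCl2, 2 mM DTT, 1 mM EGTA, 0.01% Brij-35, 0.05% BSA; native swine MBP as substrate. ADP formed quantified by ADP-Glo luminescence; percent inhibition relative to DMSO and no-enzyme controls.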

The next test deals with human NOD2 signaling. The test can be described thus: Inhibition of human NOD2 signaling in HEK-Blue-hNOD2 cells (L18-MDP stimulated, SEAP reporter). The conditions noted are these: Homo sapiens, HEK-Blue hNOD2, HEK-Blue-hNOD2 cells, NOD2 ligand stimulation, SEAP reporter; read-out: hNOD2 IC50. In kind it is cell-based. A digest of the protocol: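 HEK-Blue-hNOD2 cells (HEK293 with NOD2 and SEAP reporter), 12500/well, treated with 10-point 3-fold compound dilutions plus L18-MDP 0.5 ng/mL final, 24 h at 37 °C. Supernatant SEAP read with QUANTI-Blue after 3 h at 620 nm; IC50 by 4-parameter fit vs DMSO±L18-MDP controls.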

The subject of test [1] is TNF-alpha secretion in human whole blood. Nature of the test: Inhibition of TNF-alpha secretion in human whole blood (IFN-gamma primed, L18-MDP stimulated). The class given is cell-based. Conditions: Homo sapiens, 16 h, L18-MDP 100 ng/mL, read-out: Human Whole Blood TNFα IC50. Here is the method: Materials: Assay medium consisted of RPMI 1640 medium (catalogue number: 11875119) and 10% heat inactivated FBS (Cytvia). U-PLEX Biomarker Assay (cat #K15067L-4) to detect levels of TNF-alpha was purchased from Meso Scale Discovery. Heparinized whole blood from healthy donors/volunteers was obtained through Research Blood Components, LLC.
Test compounds were prepared into a 10 mM DMSO solution and serially diluted into 9 points using a 3-fold dilution in a 96 well plate. A 10× working stock solution of recombinant human IFN-gamma (final concentration of 10 ng/mL) was prepared in assay medium and used to prepare a 10× solution of test compound. 20 μL of 10×IFN-gamma and test compound (or DMSO control) was added to a 96-well plate. 160 μL of heparinized whole blood obtained from healthy donors was dispensed into individual wells of the 96-well plate and placed on a plate shaker (150 rpm) and incubated for 60 min at 37° C. in a CO2 incubator. Subsequently, 20 μL of L18-MDP (final concentration of 100 ng/mL) was added to the appropriate wells and further incubated for 16 hours on a plate shaker (150 rpm) at 37° C. in a CO2 incubator. The final concentration of DMSO was 0.05% (v/v) in all wells. After incubation, 100 μL of DPBS was added per well, mixed by shaking at 500 rpm for 2 minutes, followed by centrifugation (400×g for 10 minutes) and collection of supernatants. TNF-alpha in supernatants was measured using MSD immunoassay (MesoScale Discovery). 4-parametric curve fit was used to determine the test compound concentration that results in 50% reduction of TNF-alpha concentration in supernatant relative to assay controls.

Test [2] has as its target T2, RIPK2 and XIAP protein-protein interaction (Homo sapiens, UniProt O43353).
T2 construct: the N-terminus of full-length RIPK2 was appended with the HaloTag fusion protein; expressed in transfected cells; host or cells: HEK293T
The test can be described thus: Inhibition of the interaction of RIPK2 with XIAP (NanoBRET in HEK293T cells). The class given is cell-based. The conditions noted are these: RIPK2 HaloTag / XIAP NanoLuc, read-out: NanoBRET Scaffolding IC50. Summed up: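 HEK293T cells transiently co-transfected with HaloTag-RIPK2 (N-terminal) and XIAP-NanoLuc (C-terminal) full-length fusions, grown 24 h at 37° C. in Opti-MEM with 4% FBS. Compounds tested as 10-point 3-fold dilutions; NanoBRET ratio taken as 618 nm acceptor over 460 nm donor emission.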
Background: BRET reads energy transfer from a luciferase to a nearby fluorophore.

T2 sequence (O43353 whole entry, the tested form may be a part): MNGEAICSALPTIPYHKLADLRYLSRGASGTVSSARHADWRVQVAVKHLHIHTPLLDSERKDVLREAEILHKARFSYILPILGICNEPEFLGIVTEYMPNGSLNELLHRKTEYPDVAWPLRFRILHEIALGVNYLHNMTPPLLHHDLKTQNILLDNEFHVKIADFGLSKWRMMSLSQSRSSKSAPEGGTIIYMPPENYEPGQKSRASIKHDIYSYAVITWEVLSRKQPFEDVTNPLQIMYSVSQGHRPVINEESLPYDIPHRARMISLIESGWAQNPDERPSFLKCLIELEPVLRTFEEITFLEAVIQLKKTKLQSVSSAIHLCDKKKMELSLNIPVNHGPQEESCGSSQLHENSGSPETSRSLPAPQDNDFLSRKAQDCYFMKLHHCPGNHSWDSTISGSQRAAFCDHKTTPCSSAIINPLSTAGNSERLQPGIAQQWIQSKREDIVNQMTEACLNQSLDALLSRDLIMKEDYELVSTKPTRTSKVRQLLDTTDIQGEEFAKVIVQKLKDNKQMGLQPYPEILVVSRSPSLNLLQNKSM
T1 sequence (O43353 1-299 limits assumed): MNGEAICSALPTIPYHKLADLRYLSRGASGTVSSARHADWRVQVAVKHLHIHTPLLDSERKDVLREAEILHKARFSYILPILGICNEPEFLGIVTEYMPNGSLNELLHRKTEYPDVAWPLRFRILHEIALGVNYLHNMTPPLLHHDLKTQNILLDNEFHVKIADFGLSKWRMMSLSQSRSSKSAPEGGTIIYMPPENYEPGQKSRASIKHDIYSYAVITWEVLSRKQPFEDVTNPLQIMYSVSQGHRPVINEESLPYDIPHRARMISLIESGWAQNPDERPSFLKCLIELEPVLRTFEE

`Cc1cc(CC(=O)Nc2cnn(C(C)(C)C)c2)cc(F)c1Oc1ccnc2ccc(S(C)(=O)=O)cc12` [Compound 299, N-(1-(tert-butyl)-1H-pyrazol-4-yl)-2-(3-fluoro-5-methyl-4-((6-(methylsulfonyl)quinolin-4-yl)oxy)phenyl)acetamide]: the IC50 at RIPK2 enzyme was under 2.5 nM; in the test on human NOD2 signaling, 3.4 nM; in test [1], 49 nM; in test [2] it was 73 nM.
As for `COc1cc2nccc(Oc3ccc(CC(=O)Nc4cnn(C(C)(C)C)c4)cc3C(F)F)c2cc1S(C)(=O)=O` [Compound 413, N-(1-(tert-butyl)-1H-pyrazol-4-yl)-2-(3-(difluoromethyl)-4-((7-methoxy-6-(methylsulfonyl)quinolin-4-yl)oxy)phenyl) acetamide], the IC50 was under 2.5 nM at RIPK2 enzyme, 2.5 nM in the test with human NOD2 signaling, 13 nM in test [1] and 27 nM in test [2].
Taken in the same sequence, the figures for `CC(C)(C)n1cc(NC(=O)Cc2cc(Cl)c(Oc3ccnc4ccc(S(C)(=O)=O)cc34)cc2F)cn1` [Compound 429, N-(1-(tert-butyl)-1H-pyrazol-4-yl)-2-(5-chloro-2-fluoro-4-((6-(methylsulfonyl)quinolin-4-yl)oxy)phenyl)acetamide] were under 2.5 nM, 1.6 nM, 18 nM and 44 nM.
On the same counts, the results for `Cc1cc(CC(=O)Nc2nnc(C(C)(C)C)s2)c(F)cc1Oc1ccnc2ccc(S(C)(=O)=O)cc12` [Compound 443, N-(5-(tert-butyl)-1,3,4-thiadiazol-2-yl)-2-(2-fluoro-5-methyl-4-((6-(methylsulfonyl)quinolin-4-yl)oxy)phenyl) acetamide] are under 2.5 nM, 1.1 nM, 83 nM and 11 nM.
Taken in the same sequence, the figures for `Cc1cc(CC(=O)Nc2cnn(C(C)(C)C)c2)c(F)cc1Oc1ccnc2cc(F)c(C(N)=O)cc12` [Compound 465, 4-(4-(2-((1-(tert-butyl)-1H-pyrazol-4-yl)amino)-2-oxoethyl)-5-fluoro-2-methylphenoxy)-7-fluoroquinoline-6-carboxamide] were under 2.5 nM, 0.2 nM, 2.6 nM and 4.2 nM.
Take `Cc1cc(CC(=O)Nc2cnn(C(C)(C)C)c2)cc(F)c1Oc1ccnc2ccc(C(N)=O)cc12` [Compound 468, 4-(4-(2-((1-(tert-butyl)-1H-pyrazol-4-yl)amino)-2-oxoethyl)-2-fluoro-6-methylphenoxy)quinoline-6-carboxamide]: the IC50 at RIPK2 enzyme was under 2.5 nM; in the test on human NOD2 signaling it was 2.1 nM; in test [1], 8.4 nM; in test [2], 69.1 nM.
On the same counts, the results for `Cc1c(Oc2ccnc3ccc(S(C)(=O)=O)cc23)cc(F)c(CC(=O)Nc2cnn(C(C)(C)C)c2)c1F` [Compound 472, N-(1-(tert-butyl)-1H-pyrazol-4-yl)-2-(2,6-difluoro-3-methyl-4-((6-(methylsulfonyl)quinolin-4-yl)oxy)phenyl)acetamide] are under 2.5 nM, 0.3 nM, 4.1 nM and 13.3 nM.
Take `[2H]C([2H])([2H])NC(=O)c1ccc2nccc(Oc3cc(F)c(CC(=O)Nc4cnn(C(C)(C)C)c4)cc3C)c2c1` [Compound 492, 4-(4-(2-((1-(tert-butyl)-1H-pyrazol-4-yl)amino)-2-oxoethyl)-5-fluoro-2-methylphenoxy)-N-(methyl-d3)quinoline-6-carboxamide]: the IC50 was under 2.5 nM at RIPK2 enzyme, 3.7 nM in the test with human NOD2 signaling, 5.9 nM in test [1] and 22 nM in test [2].
For `[2H]C([2H])([2H])NC(=O)c1ccc2nccc(Oc3ccc(CC(=O)Nc4cnn(C56CC(C5)C6)c4)cc3C)c2c1` [Compound 559, 4-(4-(2-((1-(bicyclo[1.1.1]pentan-1-yl)-1H-pyrazol-4-yl)amino)-2-oxoethyl)-2-methylphenoxy)-N-(methyl-d3)quinoline-6-carboxamide], the IC50 at RIPK2 enzyme was under 2.5 nM; in the test with human NOD2 signaling, 1 nM; in test [1], 2 nM; in test [2], 95.8 nM.
